Laboratory results reported in the supplement of paper PMC10307832.

How the values were obtained:
Test in all cases: relative viability (nuclei count vs DMSO), 5 days (fraction); higher = more cells survive
Shikonin + Dasatinib = compound: CC(C)=CC[C@@H](O)C1=CC(=O)c2c(O)ccc(O)c2C1=O [Shikonin] + Cc1nc(Nc2ncc(C(=O)Nc3c(C)cccc3Cl)s2)cc(N2CCN(CCO)CC2)n1 [Dasatinib] (partner 0.075 µM)
Outline: (§1)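 The day after seeding in 1536-well plates, lung cancer cell lines were treated by pin tool with a single drug, or with a fixed anchor-drug dose together with five library-drug doses (not always all listed) in √10 steps. After 5 days, a combined fix-and-stain solution (final 0.05% Triton X-100, 1% formaldehyde, 1 ug/ml Hoechst) was added. Nuclei counted on 4× images gave relative viability as treated counts over vehicle counts, reported as the median of duplicate plates.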

[1] = compound: CC(C)N(CCCNC(=O)Nc1ccc(C(C)(C)C)cc1)C[C@H]1O[C@@H](n2ccc3c(N)ncnc32)[C@H](O)[C@@H]1O + CC(=O)Nc1cccc(-n2c(=O)n(C3CC3)c(=O)c3c(Nc4ccc(I)cc4F)n(C)c(=O)c(C)c32)c1 [Trametinib] (partner 0.02 µM)
Outline: as §1

[2] = compound: CC(C)N(CCCNC(=O)Nc1ccc(C(C)(C)C)cc1)C[C@H]1O[C@@H](n2ccc3c(N)ncnc32)[C@H](O)[C@@H]1O + COc1cc2c(Oc3ccc(NC(=O)C4(C(=O)Nc5ccc(F)cc5)CC4)cc3F)ccnc2cc1OCCCN1CCOCC1 [Foretinib] (partner 0.25 µM)
Outline: as §1

[3] = compound: CC(C)N(CCCNC(=O)Nc1ccc(C(C)(C)C)cc1)C[C@H]1O[C@@H](n2ccc3c(N)ncnc32)[C@H](O)[C@@H]1O + CS(=O)(=O)N1CCN(Cc2cc3nc(-c4cccc5[nH]ncc45)nc(N4CCOCC4)c3s2)CC1 [Pictilisib] (partner 1 µM)
Outline: as §1

Row | Cell Line | relative viability (Shikonin + Dasatinib; first compound 0.01 µM) | relative viability (Shikonin + Dasatinib; first compound 0.1 µM) | relative viability (Shikonin + Dasatinib; first compound 0.3162 µM) | relative viability (Shikonin + Dasatinib; first compound 1 µM) | relative viability ([1]; first compound 0.08 µM) | relative viability ([1]; first compound 0.253 µM) | relative viability ([1]; first compound 0.8 µM) | relative viability ([1]; first compound 2.53 µM) | relative viability ([1]; first compound 8 µM) | relative viability ([2]; first compound 0.08 µM) | relative viability ([2]; first compound 0.253 µM) | relative viability ([2]; first compound 0.8 µM) | relative viability ([2]; first compound 2.53 µM) | relative viability ([2]; first compound 8 µM) | relative viability ([3]; first compound 0.08 µM) | relative viability ([3]; first compound 0.253 µM) | relative viability ([3]; first compound 0.8 µM) | relative viability ([3]; first compound 2.53 µM) | relative viability ([3]; first compound 8 µM)
1 | HOP-62 | 0.66 | 0.593 | 0.701 | 0.747 | 0.349 | 0.432 | 0.316 | 0.347 | 0.38 | 0.974 | 1.23 | 1.02 | 1.06 | 0.945 | 0.723 | 0.413 | 0.655 | 0.776 | 0.342
2 | CAL-12T | 0.557 | 0.333 | 0.356 | 0.302 | 0.346 | 0.345 | 0.362 | 0.323 | 0.306 | 1.2 | 1.06 | 1.07 | 1.2 | 0.944 | 0.316 | 0.388 | 0.398 | 0.459 | 0.47
3 | NCI-H647 | 0.159 | 0.156 | 0.145 | 0.171 | 0.435 | 0.368 | 0.478 | 0.467 | 0.432 | 1.23 | 1.27 |  | 1.17 | 1.13 | 0.406 |  | 0.403 | 0.45 | 0.372
4 | NCI-H1755 | 0.484 | 0.46 | 0.499 | 0.475 | 0.758 | 0.736 | 0.719 | 0.733 | 0.771 | 0.92 | 0.909 | 0.925 | 0.857 | 0.868 | 0.469 | 0.478 | 0.357 | 0.452 | 0.394
5 | NCI-H2085 | 0.229 | 0.248 | 0.221 | 0.222 | 0.509 | 0.455 | 0.685 | 0.572 | 0.47 | 0.957 | 1.04 | 1.1 | 0.928 | 1.02 | 0.456 | 0.405 | 0.429 | 0.455 | 0.568
6 | NCI-H2023 | 0.674 | 0.646 | 0.626 | 0.611 | 0.536 | 0.579 | 0.559 | 0.495 | 0.459 | 0.811 | 0.958 | 1.02 | 1.03 | 0.773 | 0.265 | 0.215 | 0.219 | 0.333 | 0.217
